Source: patent publication US9278981B2, “Compounds and compositions for inhibiting the activity of ABL1, ABL2 and BCR-ABL1” (Novartis AG, priority 2012, dated 2016)

Each compound was assayed against ABL1 (64-515) (Homo sapiens (Human), UniProt P00519) (assay: Radio ABL1 (64-515) assay (radiometric filter-binding)).
ABL1 (64-515), sequence (P00519 64-515): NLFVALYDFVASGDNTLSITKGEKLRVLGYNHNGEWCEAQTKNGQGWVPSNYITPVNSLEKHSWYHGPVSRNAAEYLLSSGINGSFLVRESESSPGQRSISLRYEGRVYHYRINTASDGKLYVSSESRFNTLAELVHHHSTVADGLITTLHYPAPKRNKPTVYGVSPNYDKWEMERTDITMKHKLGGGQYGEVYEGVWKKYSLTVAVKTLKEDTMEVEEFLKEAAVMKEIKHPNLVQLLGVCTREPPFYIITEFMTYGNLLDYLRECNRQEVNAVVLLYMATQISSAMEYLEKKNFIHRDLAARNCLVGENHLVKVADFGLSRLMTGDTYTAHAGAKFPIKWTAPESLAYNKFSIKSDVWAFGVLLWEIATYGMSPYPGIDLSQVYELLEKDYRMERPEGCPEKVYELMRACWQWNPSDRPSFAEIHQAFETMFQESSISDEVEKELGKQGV
Assay type: biochemical
`N#Cc1ccc(-c2cc(C(=O)Nc3ccc(OC(F)(F)F)cc3)cnc2N2CC[C@H](CO)C2)cn1` [Example 91, (S)-6′-Cyano-2-(3-(hydroxymethyl)pyrrolidin-1-yl)-N-(4-(trifluoromethoxy)phenyl)-[3,3′-bipyridine]-5-carboxamide] gave an IC50 of 5 nM.
`NC[C@H]1CCN(c2ncc(C(=O)Nc3ccc(OC(F)(F)F)cc3)cc2-c2cccnc2)C1` [Example 106, (R)-2-(3-(Aminomethyl)pyrrolidin-1-yl)-N-(4-(trifluoromethoxy)phenyl)-[3,3′-bipyridine]-5-carboxamide] was tested, and the IC50 was < 3 nM.
`CC(C)(O)C1CCN(c2ncc(C(=O)Nc3ccc(OC(F)(F)F)cc3)cc2-c2cccnc2)C1` (stereo not drawn) [Example 114, 2-(3-(2-Hydroxypropan-2-yl)pyrrolidin-1-yl)-N-(4-(trifluoromethoxy)phenyl)-[3,3′-bipyridine]-5-carboxamide] showed an IC50 of 6 nM.
In the case of `Cc1ccc(-c2cc(C(=O)Nc3ccc(OC(F)(F)F)cc3)cnc2NCCO)cn1` [Example 160, 2-((2-Hydroxyethyl)amino)-6′-methyl-N-(4-(trifluoromethoxy)phenyl)-[3,3′-bipyridine]-5-carboxamide], the IC50 is reported as < 3 nM.
`COc1ccc(-c2cc(C(=O)Nc3ccc(OC(F)(F)F)cc3)cnc2N2CC[C@@H](O)C2)cn1` [Example 56, (R)-2-(3-hydroxypyrrolidin-1-yl)-6′-methoxy-N-(4-(trifluoromethoxy)phenyl)-[3,3′-bipyridine]-5-carboxamide] gave an IC50 of 4 nM.
For `CC1(O)CN(c2ncc(C(=O)Nc3ccc(OC(F)(F)F)cc3)cc2-c2cnc(Cl)c(F)c2)C1` [Example 134, 6′-Chloro-5′-fluoro-2-(3-hydroxy-3-methylazetidin-1-yl)-N-(4-(trifluoromethoxy)phenyl)-[3,3′-bipyridine]-5-carboxamide], the IC50 was 10 nM.
With `COc1ccc(-c2cc(C(=O)Nc3ccc(OC(F)(F)F)cc3)cnc2N2CC[C@@H](CN)C2)cn1` [Example 111, (S)-2-(3-(Aminomethyl)pyrrolidin-1-yl)-6′-methoxy-N-(4-(trifluoromethoxy)phenyl)-[3,3′-bipyridine]-5-carboxamide] the IC50 was < 3 nM.
With `COc1ccc(-c2cc(C(=O)Nc3ccc(OC(F)(F)F)cc3)cnc2NCCCO)cn1` [Example 164, 2-((3-Hydroxypropyl)amino)-6′-methoxy-N-(4-(trifluoromethoxy)phenyl)-[3,3′-bipyridine]-5-carboxamide] the IC50 was 12 nM.
`Cc1ccc(-c2cc(C(=O)Nc3ccc(OC(F)(F)F)cc3)cnc2N2CC[C@@H](N)C2)cn1` [Example 95, (R)-2-(3-Aminopyrrolidin-1-yl)-6′-methyl-N-(4-(trifluoromethoxy)phenyl)-[3,3′-bipyridine]-5-carboxamide] was tested, and the IC50 was < 3 nM.
`N[C@@H]1CCN(c2ncc(C(=O)Nc3ccc(OC(F)(F)F)cc3)cc2-c2cccnc2)C1` [Example 94, (R)-2-(3-Aminopyrrolidin-1-yl)-N-(4-(trifluoromethoxy)phenyl)-[3,3′-bipyridine]-5-carboxamide] was tested, and the IC50 was < 3 nM.
`Cc1ccc(-c2cc(C(=O)Nc3ccc(OC(F)(F)F)cc3)cnc2NCCCO)cn1` [Example 163, 2-((3-Hydroxypropyl)amino)-6′-methyl-N-(4-(trifluoromethoxy)phenyl)-[3,3′-bipyridine]-5-carboxamide] was tested, and the IC50 was < 3 nM.
With `Cc1cncc(-c2cc(C(=O)Nc3ccc(OC(F)(F)F)cc3)cnc2N2CC[C@@H](O)C2)c1` [Example 44, (R)-2-(3-Hydroxypyrrolidin-1-yl)-5′-methyl-N-(4-(trifluoromethoxy)phenyl)-[3,3′-bipyridine]-5-carboxamide] the IC50 was < 3 nM.
`Cc1ccc(-c2cc(C(=O)Nc3ccc(OC(F)(F)F)cc3)cnc2N(C)CCCO)cn1` [Example 167, 2-((3-Hydroxypropyl)(methyl)amino)-6′-methyl-N-(4-(trifluoromethoxy)phenyl)-[3,3′-bipyridine]-5-carboxamide] showed an IC50 of 30 nM.
`O=C(Nc1ccc(OC(F)(F)F)cc1)c1cnc(N2CCC(O)C2)c(-c2ccncc2)c1` (stereo not drawn) [Example 31, 2-(3-Hydroxypyrrolidin-1-yl)-N-(4-(trifluoromethoxy)phenyl)-[3,4′-bipyridine]-5-carboxamide] was tested, and the IC50 was 7 nM.
`Cc1ccc(-c2cc(C(=O)Nc3ccc(OC(F)(F)F)cc3)ccc2N2CC[C@@H](O)C2)cn1` [Example 6, (R)-4-(3-Hydroxypyrrolidin-1-yl)-3-(6-methylpyridin-3-yl)-N-(4-(trifluoromethoxy)phenyl)benzamide] was tested, and the IC50 was < 3 nM.
In the case of `O=C(Nc1ccc(OC(F)(F)F)cc1)c1cnc(N2CCC(O)C2)c(-c2cccnc2)c1` (stereo not drawn) [Example 29, 2-(3-Hydroxypyrrolidin-1-yl)-N-(4-(trifluoromethoxy)phenyl)-[3,3′-bipyridine]-5-carboxamide], the IC50 is reported as < 3 nM.
For `CN[C@H]1CCN(c2ncc(C(=O)Nc3ccc(OC(F)(F)F)cc3)cc2-c2cccnc2)C1` [Example 103, (S)-2-(3-(Methylamino)pyrrolidin-1-yl)-N-(4-(trifluoromethoxy)phenyl)-[3,3′-bipyridine]-5-carboxamide], the IC50 was < 3 nM.
With `O=C(Nc1ccc(OC(F)(F)F)cc1)c1cnc(N2CC[C@@H](CO)C2)c(-c2cccnc2)c1` [Example 76, (R)-2-(3-(Hydroxymethyl)pyrrolidin-1-yl)-N-(4-(trifluoromethoxy)phenyl)-[3,3′-bipyridine]-5-carboxamide] the IC50 was < 3 nM.
`COc1cncc(-c2cc(C(=O)Nc3ccc(OC(F)(F)F)cc3)cnc2N2CC[C@@H](O)C2)c1` [Example 55, (R)-2-(3-hydroxypyrrolidin-1-yl)-5′-methoxy-N-(4-(trifluoromethoxy)phenyl)-[3,3′-bipyridine]-5-carboxamide] showed an IC50 of 3 nM.
In the case of `N#C[C@H]1CCCN(c2ncc(C(=O)Nc3ccc(OC(F)(F)F)cc3)cc2-c2cncnc2)C1` [Example 24], the IC50 is reported as < 3 nM.
With `CN(c1ncc(C(=O)Nc2ccc(OC(F)(F)F)cc2)cc1-c1cncnc1)C1CCOCC1` [Example 27] the IC50 was < 3 nM.
`CN(CCCO)c1ncc(C(=O)Nc2ccc(OC(F)(F)F)cc2)cc1-c1cncnc1` [Example 165, 6-((3-Hydroxypropyl)(methyl)amino)-5-(pyrimidin-5-yl)-N-(4-(trifluoromethoxy)phenyl)nicotinamide] was tested, and the IC50 was < 3 nM.
In the case of `CN[C@@H]1CCN(c2ncc(C(=O)Nc3ccc(OC(F)(F)F)cc3)cc2-c2cncnc2)C1` [Example 99, (R)-6-(3-(Methylamino)pyrrolidin-1-yl)-5-(pyrimidin-5-yl)-N-(4-(trifluoromethoxy)phenyl)nicotinamide], the IC50 is reported as < 3 nM.
With `Cc1ccc(-c2cc(C(=O)Nc3ccc(OC(F)(F)F)cc3)cnc2N2CCCN(C)CC2)cn1` [Example 147, 6′-Methyl-2-(4-methyl-1,4-diazepan-1-yl)-N-(4-(trifluoromethoxy)phenyl)-[3,3′-bipyridine]-5-carboxamide] the IC50 was < 3 nM.
With `CC(=O)NC1CCN(c2ncc(C(=O)Nc3ccc(OC(F)(F)F)cc3)cc2-c2cncnc2)C1` (stereo not drawn) [Example 15] the IC50 was < 3 nM.
With `O=C(Nc1ccc(OC(F)(F)F)cc1)c1cnc(NCCO)c(-c2cccnc2)c1` [Example 159, 2-((2-Hydroxyethyl)amino)-N-(4-(trifluoromethoxy)phenyl)-[3,3′-bipyridine]-5-carboxamide] the IC50 was < 3 nM.
With `O=C(Nc1ccc(OC(F)(F)F)cc1)c1cnc(N2CC[C@H](CO)C2)c(-c2cccnc2)c1` [Example 81, (S)-2-(3-(Hydroxymethyl)pyrrolidin-1-yl)-N-(4-(trifluoromethoxy)phenyl)-[3,3′-bipyridine]-5-carboxamide] the IC50 was < 3 nM.
